From patent US20180209956A1, “HTS Assay for Identifying Small Molecule Inhibitors of RAD52 and Uses of Identified Small Molecule Inhibitors for Treatment and Prevention of BRCA-Deficient Malignancies” (University of Iowa Research Foundation, priority 2015, published 2018)

Assays:
GM01604 cells [1] = assay: Anaphase bridges after aphidicolin (MUS81 activity); type: cell-based, human; details: aphidicolin 24 h, increasing concentration of compound
Protocol: Forty eight hours after transfection the fibroblasts were lysed and analysed by WB with the indicated antibodies. b) Forty eight hours after transfection, GM01604 cells were exposed to […] aphidicolin (APH) for 24 h in the presence (grey bars) or absence (white bars) of increasing concentration of ‘1’ added in the last 3 h before aphidicolin treatment. Results are presented as mean±SEM from two independent replicates. c) The presence of anaphase bridges, as shown in the representative images, was scored in DAPI-stained cells. The white bars indicate 10 μm.

GM01604 cells [2] = assay: LIVE/DEAD cell viability assay; type: cell-based, human; details: for Dead cells: MUS81-depleted cells
Protocol: Cell Viability Live/Dead Assays: GM01604 cells were transfected with siRNAs directed against GFP (Ctrl), or against MUS81 (Qiagen), BRCA2 (Sigma-Aldrich), and RAD52 (Qiagen) 48 hours prior to addition of 1 μM ‘1’. Where indicated, the conditions of pathological replication were induced by treating cells with 2 mM HU and 300 nM UCN01 for 6 h or by a 18 hours treatment with 2 mM HU, in the presence or absence of ‘1’. Viability was evaluated by the LIVE/DEAD assay (Sigma-Aldrich) according to the manufacturer's instructions. Cell number was counted in randomly chosen fields and expressed as percent of dead cells (number of red nuclear stained cells divided by the total cell number) corrected for the cell loss observed in the population. For each time point, at least 200 cells were counted.

RAD52 = biological target: T1, RAD52 (Homo sapiens, UniProt P43351); assay: WaterLOGSY NMR analysis of compound binding to RAD52; parameters: made in house; details: 20 or 40 μM compound, 3.3 μM RAD52
T1 sequence (P43351 1-418): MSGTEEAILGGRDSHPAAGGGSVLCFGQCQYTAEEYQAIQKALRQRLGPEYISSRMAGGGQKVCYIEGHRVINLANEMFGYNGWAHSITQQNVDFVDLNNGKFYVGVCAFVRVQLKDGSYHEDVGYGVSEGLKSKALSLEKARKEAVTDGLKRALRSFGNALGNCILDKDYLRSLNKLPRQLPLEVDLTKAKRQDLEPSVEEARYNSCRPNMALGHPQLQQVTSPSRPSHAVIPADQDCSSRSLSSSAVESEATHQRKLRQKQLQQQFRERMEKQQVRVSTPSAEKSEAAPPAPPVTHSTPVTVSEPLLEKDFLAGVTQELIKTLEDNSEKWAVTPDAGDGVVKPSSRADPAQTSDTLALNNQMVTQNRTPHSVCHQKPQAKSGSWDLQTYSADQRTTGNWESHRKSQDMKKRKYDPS
Protocol: In WaterLOGSY spectrum, if a compound binds to a protein, the compound will receive negative nuclear Overhauser effects (NOEs) due to the slow tumbling of the protein-compound complex, leading to a positive WaterLOGSY peak.
WaterLOGSY NMR analysis of the compound binding to RAD52 and RPA proteins: Compound binding to RAD52 and RPA proteins was analyzed using water-ligand observation with gradient spectroscopy (WaterLOGSY) NMR experiments (Dalvit et al., 2001, Dalvit et al., 2000). The WaterLOGSY spectra of compounds in the presence of RAD52 or RPA were acquired using a water NOE mixing time of 1 s and a T2 relaxation filter of 50 ms just before data acquisition to suppress the broad signals derived from protein. The protein buffer used in the experiments contains 10 mM Tris-d11, 75 mM KCl, 0.25 mM EDTA, pH 7.5, and 10% D20. All NMR data were acquired on a Bruker Avance II 800 MHz NMR spectrometer equipped with a sensitive cryoprobe and recorded at 25° C. The ^1H chemical shifts were referenced to 2,2-dimethyl-2-silapentane-5-sulfonate (DSS). NMR spectra were processed using NMR Pipe (Delaglio et al., 1995) and analysed using NMR View (Johnson and Blevins, 1994).

[3] = biological target: T2, interaction between RAD52 and RPA proteins (Homo sapiens, UniProt P43351); assay: Ni-NTA pull-down of RAD52 and RPA; type: binding; details: 3 μM RAD52, 3 μM RPA, 3 μM compound
T2 construct: made in house
T2 sequence (P27694 whole entry partner, one chain of several): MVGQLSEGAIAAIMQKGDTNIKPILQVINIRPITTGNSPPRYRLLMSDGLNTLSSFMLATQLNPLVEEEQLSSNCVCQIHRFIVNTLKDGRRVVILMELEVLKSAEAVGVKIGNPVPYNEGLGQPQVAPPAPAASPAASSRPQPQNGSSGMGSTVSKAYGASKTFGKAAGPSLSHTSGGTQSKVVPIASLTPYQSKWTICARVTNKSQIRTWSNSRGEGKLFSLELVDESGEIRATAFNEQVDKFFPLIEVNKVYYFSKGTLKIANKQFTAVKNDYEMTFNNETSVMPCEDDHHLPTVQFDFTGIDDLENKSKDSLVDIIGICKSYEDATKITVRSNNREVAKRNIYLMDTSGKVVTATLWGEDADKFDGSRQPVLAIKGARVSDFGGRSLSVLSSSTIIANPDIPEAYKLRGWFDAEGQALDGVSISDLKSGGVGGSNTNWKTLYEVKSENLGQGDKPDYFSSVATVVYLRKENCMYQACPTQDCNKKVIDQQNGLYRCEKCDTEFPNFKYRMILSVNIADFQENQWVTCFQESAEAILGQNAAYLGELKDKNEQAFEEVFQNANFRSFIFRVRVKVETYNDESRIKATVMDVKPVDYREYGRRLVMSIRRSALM
T2 sequence (P15927 whole entry partner, one chain of several): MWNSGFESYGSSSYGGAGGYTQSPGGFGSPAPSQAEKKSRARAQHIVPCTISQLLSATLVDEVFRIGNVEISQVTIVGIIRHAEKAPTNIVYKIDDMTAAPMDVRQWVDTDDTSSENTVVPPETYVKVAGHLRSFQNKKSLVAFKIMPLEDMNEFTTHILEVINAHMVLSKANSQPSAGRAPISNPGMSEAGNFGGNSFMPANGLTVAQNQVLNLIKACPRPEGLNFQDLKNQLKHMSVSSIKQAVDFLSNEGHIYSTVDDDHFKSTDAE
T2 sequence (P35244 whole entry partner, one chain of several): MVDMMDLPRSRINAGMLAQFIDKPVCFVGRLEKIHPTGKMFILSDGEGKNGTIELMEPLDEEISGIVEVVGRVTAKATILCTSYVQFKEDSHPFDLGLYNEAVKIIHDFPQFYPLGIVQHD

RAD52-dsDNA interaction = biological target: T3, RAD52-dsDNA interaction (Homo sapiens, UniProt P43351); assay: FRET-based RAD52-dsDNA binding assay; details: 1 nM dsDNA, 10 nM RAD52
T3 construct: made in house
T3 sequence (P43351 1-418): T1 sequence (P43351 1-418)
Description: These assays utilize two complementary single stranded 28-nucleotide-long substrates, which contain either Cy3 (T-28) or Cy5 (P-28) incorporated into the middle of the respective DNA strand. When the substrates are annealed by RAD52, the Cy3 and Cy5 dyes are separated by 3 base pairs and yield a high FRET signal (FIG. 2 Supplement 2). […] The annealing reactions were initiated by mixing two half reactions and observing the change in FRET over time in the presence of varying concentrations of small molecules. An increasing FRET value over time indicates formation of the dsDNA duplex which brings the two dyes in close proximity (FIG. 2 Supplement 2). Fitting the annealing data to a double exponential allowed us to calculate and compare the final extent of annealing at varying concentrations of each compound compared to RAD52 alone. We plotted the final extent of annealing vs the concentration of the compound and calculated an IC50 of annealing inhibition.
where FRET0 is the initial FRET value of RAD52-ssDNA complex in the absence of the compound and FRETmin is the FRET value at complete inhibition. FRET values were calculated as an average of three or more independent annealing reactions plotted against the concentration of the compound. […]

## Oc1cc(O)c2c(c1)O[C@H](c1cc(O)c(O)c(O)c1)[C@H](O)C2 [Compound ‘1’, (−)-Epigallocatechin]
GM01604 cells [1]
  Effect on MUS81 activity (anaphase bridges): does not affect MUS81 activity
GM01604 cells [2]; BRCA2-depleted cells, HU 18 h
  Cell death after prolonged replication arrest: substantial increase in cell death
GM01604 cells [2]; BRCA2-depleted cells, after replication stress, 1 μM compound
  Cell death: ~80%
GM01604 cells [2]; Ctrl siRNA cells, 1 μM compound
  Cell death after HU+UCN01: potentiated the effect of the combined HU+UCN01 treatment
GM01604 cells [2]; checkpoint-deficient, HU treated, 1 μM compound
  Dead cells: ~60%
GM01604 cells [2]; untreated, 1 μM compound
  Dead cells: approximately 40%

## O=C(O[C@@H]1Cc2c(O)cc(O)cc2O[C@@H]1c1cc(O)c(O)c(O)c1)c1cc(O)c(O)c(O)c1 [Compound 6, Epigallocatechin-3-monogallate]
RAD52
  Binding to RAD52 by WaterLOGSY: positive WaterLOGSY peaks
[3]
  Effect on the interaction between RAD52 and RPA proteins: no effect
RAD52-dsDNA interaction
  Effect on the RAD52-dsDNA interaction: able to displace dsDNA
